The results in this text go back to patent US20240327392A1, “HETEROCYCLOALKYL-SUBSTITUTED POLYHETEROAZOLE DERIVATIVES AS MEDICAMENTS FOR TREATING AND/OR PREVENTING RS VIRUS INFECTIONS” (ALBIUS SCIENCES ALPHA PRIVATE LIMITED, priority 2021, published 2024).

The test system of the first assay is human RS virus A2 strain. The assay is described as follows: In vitro test for anti-RS virus proliferation inhibitory activity (quantitative RT-PCR of RS virus RNA copy number in infected Vero cells). The format is cell-based. The conditions noted are these: 72 h; Vero cells infected with human RS virus A2 strain, 3 days of incubation, RS virus N gene RNA copy number by quantitative RT-PCR; read-out: Anti-RS virus Activity. Summed up:
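Vero cells infected with RSV A2 (1.7×10^4 TCID50/mL in inoculum mix) with compound in 10% FCS EMEM, 3 days at 37 °C, 5% CO2. Lysate viral N-gene RNA quantified by one-step SYBR qRT-PCR; copy number by comparative Ct relative to untreated infected cells.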
Turning to `CC(C)CS(=O)(=O)N1CCCC[C@H]1c1nc(CCCc2ccccc2)no1` [Compound 2A, 3-(3-phenylpropyl)-5-[(2S)-1-isobutylsulfonylpiperidin-2-yl]-1,2,4-oxadiazole], the IC50 lay within 10 to 50 µM. Regarding `O=S(=O)(Cc1ccccc1)N1CCC[C@H]1c1nc(CCCc2ccccc2)no1` [Compound 1E, 3-(3-phenylpropyl)-5-[(2S)-1-benzylsulfonylpyrrolidin-2-yl]-1,2,4-oxadiazole], the IC50 lay within 10 to 50 µM.

The assay is the same for the next values; noted with them: 72 h; Vero cells infected with human RS virus A2 strain, 3 days of incubation, RS virus RNA copy number by quantitative RT-PCR; read-out: Anti-RS virus Activity.
Turning to `COc1ccc(S(=O)(=O)N2CC(CC3CCC3)CC2c2nc(CCCc3ccccc3)no2)cc1` (stereo not shown) [Compound 6AI, 5-(4-(cyclobuthylmethyl)-1-((4-methoxyphenyl)sulfonyl)pyrrolidin-2-yl)-3-(3-phenylpropyl)-1,2,4-oxadiazole], the IC50 was below 10 µM.

As to `COc1ccc(S(=O)(=O)N2CC3(CC3)C[C@H]2c2nc(CCCc3ccccc3)no2)cc1` [Compound 5AI, (S)-5-(5-((4-methoxyphenyl)sulfonyl)-5-azabicyclo[2.4]heptan-6-yl)-3-(3-phenylpropyl)-1,2,4-oxadiazole], the IC50 fell in the range of 10 to 50 µM. Still for that read-out and setting: with `CC(C)CS(=O)(=O)N1CC(CC2CCC2)CC1c1nc(CCCc2ccccc2)no1` (stereo not shown) [Compound 6A, 3-(3-phenylpropyl)-5-(1-isobutylsulfonyl-4-cyclobutylmethylpyrrolidin-2-yl)-1,2,4-oxadiazole] the figure was below 10 µM. Still for that read-out and setting: with `CC(C)(C)OC(=O)N1CCCC[C@H]1c1nnc(CCc2ccccc2)o1` [Compound 17-1, Tert-butyl (S)-2-(5-phenethyl-1,3,4-oxadiazol-2-yl) piperidine-1-carboxylate] the figure was below 10 µM; with `CC(C)(C)OC(=O)N1CC(CS(=O)(=O)N2C[C@H](c3ccccc3)C[C@H]2c2nc(CCCc3ccccc3)no2)C1` [Compound 7AM, tert-buthyl 3-((((2S,4S)-4-phenyl2-(3-(3-phenylpropyl)-1,2,4-oxadiazole-5-yl)pyrrolidin-1-yl)sulfonyl)methyl)azetidin-1-carboxylate], below 10 µM; with `O=S(=O)(C1CCOCC1)N1C[C@H](c2ccccc2)C[C@H]1c1nc(CCCc2ccccc2)no1` [Compound 7AP, 5-((2S,4S)-4-phenyl1-((tetrahydro-2H-pyran-4-yl)sulfonyl)pyrrolidin-2-yl)-3-(3-phenylpropyl)-1,2,4-oxadiazole], below 10 µM.

As for `CN(C)c1ccc(S(=O)(=O)N2CC(CC3CCC3)CC2c2nc(CCCc3ccccc3)no2)cc1` (stereo not shown) [Compound 6AK, 4-((4-(cyclobuthylmethyl)-2-(3-(3-phenylpropyl)-1,2,4-oxadiazole-5-yl)pyrrolidin-1-yl)sulfonyl)-N,N-dimethylaniline], the IC50 was below 10 µM. On the same count and under the same terms, the same measure for `Fc1ccc(CN2CCC[C@H]2c2nc(CCCc3ccccc3)no2)cc1` [Compound 1V, (S)-5-(1-(4-fluorobenzyl)pyrrolidin-2-yl)-3-(3-phenylpropyl)-1,2,4-oxadiazole]: below 10 µM; for `O=S(=O)(c1ccccc1)N1CC2(CC2)C[C@H]1c1nc(CCCc2ccccc2)no1` [Compound 5D, 3-(3-phenylpropyl)-5-{(6S)-5-benzenesulfonyl-5-azaspiro[2.4]hept-6-yl}-1,2,4-oxadiazole]: above 50 µM. As for `COC(=O)c1nc([C@@H]2CCCCN2S(=O)(=O)C2CCCCC2)[nH]c1C` [Compound 38B, Methyl (S)-2-(1-(cyclohexylsulfonyl)piperidin-2-yl)-5-methyl-1H-Imidazole-4-carboxylate], the IC50 lay in the range of 10 to 50 µM. Still for that read-out and setting: with `CC(C)(C)OC(=O)N1CCCC[C@H]1c1noc(CCCc2ccccc2)n1` [Compound C3-16-1, Tert-butyl (S)-2-(5-(3-phenylpropyl)-1,2,4-oxadiazol-3-yl) piperidine-1-carboxylate] the figure was below 10 µM; with `O=C(c1ccccc1)N1CCCC[C@H]1c1nc(CCCc2ccccc2)no1` [Compound 2S, (S)-Phenyl(2-(3-(3-phenylpropyl)-1,2,4-oxadiazol-5-yl)piperidin-1-yl)methanone], below 10 µM; with `CC(C)(C)OC(=O)N1CCC(CS(=O)(=O)N2CC(CC3CCC3)CC2c2nc(CCCc3ccccc3)no2)CC1` (stereo not shown) [Compound 6AN, tert-buthyl 4-(((4-(cyclobuthylmethyl)-2-(3-(3-phenylpropyl)-1,2,4-oxadiazole-5-yl)pyrrolidin-1-yl)sulfonyl)methyl)piperidin-1-carboxylate], 10 to 50 µM. The same measure, in the same setting: with `CC(C)NC(=O)N1CCC[C@H]1c1nc(CCCc2ccccc2)no1` [Compound 1G, (S)—N-isopropyl-2-(3-(3-phenylpropyl)-1,2,4-oxadiazol-5-yl)pyrrolidine-1-carboxamide] the figure was above 50 µM; with `CC(C)(C)OC(=O)N1CCC(CS(=O)(=O)N2C[C@H](c3ccccc3)C[C@H]2c2nc(CCCc3ccccc3)no2)CC1` [Compound 7AN, tert-buthyl 4-((((2S,4S)-4-phenyl2-(3-(3-phenylpropyl)-1,2,4-oxadiazole-5-yl)pyrrolidin-1-yl)sulfonyl)methyl)piperidin-1-carboxylate], below 10 µM; with `CS(=O)(=O)N1C[C@H]2CC[C@]1(c1nc(CCc3ccccc3)no1)CC2` [Compound 15C, 5-((1s,4s)-2-(methylsulfonyl)-2-azabicyclo[2.2.2]octan-1-yl)-3-phenethyl-1,2,4-oxadiazole], 10 to 50 µM.

With `O=S(=O)(c1ccc(F)cc1)N1CCC[C@H]1c1cn(Cc2ccccc2)nn1` [Compound 39AJ, (S)-1-Benzyl-4-(1-((4-fluorophenyl)sulfonyl)pyrrolidin-2-yl)-1H-1,2,3-triazole], the IC50 is below 10 µM.

As for `CC(C)(C)OC(=O)N1[C@@H]2CC[C@@H](C2)[C@H]1c1nnc(Cc2c[nH]c3ccccc23)[nH]1` [Compound 24-1, Tert-butyl (1R,3S,4S)-3-(5-((1H-indol-3-yl)methyl)-4H-1,2,4-triazol-3-yl)-2-azabicyclo[2.2.1]heptane-2-carboxylate], the IC50 was 10 to 50 µM. Same read-out and setting: with `CC(C)(C)OC(=O)N1C[C@H]2CC[C@]1(c1nc(CCc3ccncc3)no1)CC2` [Compound 13-1, Tert-butyl (1s,4s)-1-(3-(2-(pyridin-4-yl)ethyl)-1,2,4-oxadiazol-5-yl)-2-azabicyclo[2.2.2]octane-2-carboxylate] the figure was 10 to 50 µM; with `CCN1CCCC[C@H]1c1nc(CCCc2ccccc2)no1` [Compound 2Z, (S)-5-(1-ethylpiperidin-2-yl)-3-(3-phenylpropyl)-1,2,4-oxadiazole], 10 to 50 µM. The same measure, in the same setting: the same measure for `O=S(=O)(C1CCCCC1)N1[C@@H]2CC[C@@H](C2)[C@H]1c1nnc(CCc2ccncc2)[nH]1` [Compound 29B, (1R,3S,4S)-2-(cyclohexylsulfonyl)-3-(5-(2-(pyridin-4-yl)ethyl)-4H-1,2,4-triazol-3-yl)-2-azabicyclo[2.2.1]heptane]: 10 to 50 µM; for `CC(C)(C)OC(=O)N1C[C@H]2CC[C@]1(c1nc(CCc3ccccc3)no1)CC2` [Compound 15-1, Tert-butyl (1s,4s)-1-(3-phenethyl-1,2,4-oxadiazol-5-yl)-2-azabicyclo[2.2.2]octane-2-carboxylate]: 10 to 50 µM. Take `O=C(OC1CCCC1)N1CCC[C@H]1c1nc(CCCc2ccccc2)no1` [Compound 1O, Cyclopentyl (S)-2-(3-(3-phenylpropyl)-1,2,4-oxadiazol-5-yl) pyrrolidine-1-carboxylate]: the IC50 was 10 to 50 µM.
